How the values were obtained:
[1] = biological target: EGFR L858R/T790M/C797S mutant kinase (Homo sapiens (Human), UniProt P00533, C797S/L858R/T790M); assay: HTRF kinase assay, EGFR L858R/T790M/C797S mutant kinase; format: biochemical; settings: 120 minutes at room temperature
Excerpt: (§1) Test Example 1. Determination of the Inhibitory Effect of the Compounds of the Present Invention on the Activity of EGFR del19/T790M/C797S and EGFR L858R/T790M/C797S Mutant Kinases
(§2) Experimental objective: The objective of this test example is to test the inhibitory activity of the compounds on the activity of EGFR del19/T790M/C797S and EGFR L858R/T790M/C797S mutant kinases.
(§3) Experimental method: This experiment used Cisbio's HTRF kinase assay method (Cisbio #62TK0PEB), wherein a catalytic reaction occurred between the substrate polypeptide TK and ATP in the presence of the tyrosine kinase with EGFR del19/T790M/C797S or EGFR L858R/T790M/C797S mutation, the substance was phosphorylated, and the activity of the kinase was characterized by measuring the content of the phosphorylated substrate generated during the reaction, and the half inhibitory concentration IC50 of the compound on the activity of EGFR del19/T790M/C797S or EGFR L858R/T790M/C797S mutant kinase was obtained.
(§4) Specific Experimental Operations were as Follows: • the kinase reaction was carried out in a white 384-well plate (Perkin Elmer #6008280), and 1-5 μL of compounds of different concentrations which were diluted with 1% DMSO-containing ddH2O were added; to the positive control wells were added 1-5 μL of 1% DMSO-containing ddH2O, followed by 1-5 μL of 0.5-5 nM 4×EGFR del19/T790M/C797S or EGFR L858R/T790M/C797S mutant kinase solution which was diluted with Dilution buffer (5× kinase buffer, MgCl2 6.65 Mm, MnCl2 1.33 mM, DTT 1.33 mM); to the negative control wells were added 1-5 μL of Dilution buffer; to all the wells were added 1-5 μL of 4 μM 4× substrate TK solution which was prepared with 10× Dilution buffer, and finally added 1-5 μL of 24 μM 4×ATP solution which was diluted with Dilution buffer to start the reaction; after reacting at room temperature for 120 minutes, 10 μL of detection solution (TK antibody 16 nM, XL665 0.5 μM) was added to each well, same was reacted at room temperature in the dark for 20 minutes, and then the […] was detected using a BioTek Synergy H1 microplate reader.
(§5) The percent inhibition data for compound-treated wells was calculated according to the positive control wells (DMSO control wells) and negative control wells (no kinase added) on the plate {% inhibition rate=100−[(test compound value−negative control value)]/(positive control value−negative control value)×100}. GraphPad prism was used to fit different concentrations and corresponding percent inhibition rate data to a 4-parameter nonlinear logistic equation to calculate IC50 values.

[2] = biological target: EGFR del19/T790M/C797S mutant kinase (Homo sapiens, UniProt P00533, C797S/DEL746-750/T790M); assay: HTRF kinase assay, EGFR del19/T790M/C797S mutant kinase; format: biochemical; settings: 120 minutes at room temperature
Chain of EGFR del19/T790M/C797S mutant kinase (P00533 with tags, fused parts or gaps C797S/DEL746-750/T790M limits assumed): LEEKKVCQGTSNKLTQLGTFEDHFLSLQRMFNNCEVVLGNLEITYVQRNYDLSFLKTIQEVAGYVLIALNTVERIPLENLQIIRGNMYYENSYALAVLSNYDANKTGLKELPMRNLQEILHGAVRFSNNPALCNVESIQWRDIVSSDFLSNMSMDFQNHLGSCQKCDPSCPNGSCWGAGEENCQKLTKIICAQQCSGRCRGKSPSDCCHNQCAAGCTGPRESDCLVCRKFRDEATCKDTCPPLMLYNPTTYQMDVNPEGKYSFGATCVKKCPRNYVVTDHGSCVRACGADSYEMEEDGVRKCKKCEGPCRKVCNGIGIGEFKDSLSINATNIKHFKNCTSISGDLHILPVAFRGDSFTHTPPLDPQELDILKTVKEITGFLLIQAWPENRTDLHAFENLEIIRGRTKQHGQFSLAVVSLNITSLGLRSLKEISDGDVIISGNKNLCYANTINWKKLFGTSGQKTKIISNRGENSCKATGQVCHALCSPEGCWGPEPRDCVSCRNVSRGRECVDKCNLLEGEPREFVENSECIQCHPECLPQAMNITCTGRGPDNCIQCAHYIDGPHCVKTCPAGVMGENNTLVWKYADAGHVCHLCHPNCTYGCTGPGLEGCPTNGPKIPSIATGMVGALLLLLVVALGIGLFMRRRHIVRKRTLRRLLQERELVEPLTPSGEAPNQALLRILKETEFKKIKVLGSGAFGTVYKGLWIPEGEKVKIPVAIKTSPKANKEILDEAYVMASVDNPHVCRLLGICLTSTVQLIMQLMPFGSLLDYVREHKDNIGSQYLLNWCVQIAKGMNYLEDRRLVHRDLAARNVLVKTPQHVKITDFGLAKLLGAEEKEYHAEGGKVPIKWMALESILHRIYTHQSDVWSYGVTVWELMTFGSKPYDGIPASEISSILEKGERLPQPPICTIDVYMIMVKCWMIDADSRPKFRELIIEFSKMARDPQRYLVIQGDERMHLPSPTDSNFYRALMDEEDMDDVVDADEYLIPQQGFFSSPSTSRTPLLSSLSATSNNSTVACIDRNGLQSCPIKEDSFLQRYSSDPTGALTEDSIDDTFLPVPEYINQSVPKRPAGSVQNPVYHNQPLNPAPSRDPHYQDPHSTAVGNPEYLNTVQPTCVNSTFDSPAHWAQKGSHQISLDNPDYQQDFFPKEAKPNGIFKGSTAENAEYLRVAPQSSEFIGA
Excerpt: as §1, §2, §3, §4, §5

[3] = system: Ba/F3 EGFR Del19/C797S cells; assay: Cell proliferation inhibition assay (Cell Titer-Glo), Ba/F3 EGFR Del19/C797S; format: cell-based; settings: 72 hours, read-out: Ba/F3 EGFR Del19_C797S IC50
Summary of the method: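 Ba/F3 cells carrying EGFR Del19/T790M/C797S or Del19/C797S, grown in RPMI 1640 with 10% FBS, were plated overnight and then exposed to serially diluted compound for 72 h at 37° C, 5% CO2. Viability was read by CellTiter-Glo luminescence; IC50 came from a nonlinear fit of inhibition rate against concentration.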

[4] = system: Ba/F3 EGFR Del19/T790M/C797S cells; assay: Cell proliferation inhibition assay (Cell Titer-Glo), Ba/F3 EGFR Del19/T790M/C797S; format: cell-based; settings: 72 hours, read-out: Ba/F3 EGFR Del19_T790M_C797S IC50
Excerpt: Test Example 2: Cell Proliferation Inhibition Assay
Experimental objective: The objective of this test example is to test the inhibitory activity of compounds on the proliferation of different EGFR C797S drug-resistant mutant cell lines Ba/F3 EGFR Del19/T790M/C797S, Ba/F3 EGFR L858R/T790M/C797S, and Ba/F3 EGFR Del19/C797S.
• Ba/F3 EGFR Del19/T790M/C797S cells were purchased from KYinno Biotechnology Co., Ltd.; • Ba/F3 EGFR Del19/C797S cells were purchased from CoBioer Biosciences Co., Ltd.; • Ba/F3 EGFR L858R/T790M/C797S cells were purchased from CoBioer Biosciences Co., Ltd.; • Cell Titer-Glo was purchased from Promega, with a catalog number of G7573; • RPMI 1640 was purchased from Gibco, with a catalog number of 22400089; • FBS was purchased from Gibco, with a catalog number of 10091148; • cell culture plates were purchased from Corning, with a catalog number of 3610.
The inhibitory activity of the compound on the proliferation of different EGFR C797S drug-resistant mutant cell lines was detected using the Cell Titer-Glo method. The different cell lines were cultured in RPMI 1640 complete culture medium containing 10% FBS under conditions of 37° C. and 5% CO2, the cells were collected by centrifugation when growing to a certain density, and adjusted to appropriate cell density after counting, the cells were spread on a white 96-well plate at 90 μL/well, and cultured in a 37° C., 5% CO2 incubator overnight, prepared compound solutions of different concentrations were added at 10 μL/well, corresponding solvent controls were set, and all wells were cultured in a 37° C., 5% CO2 incubator for 72 hours, 50 μL of CellTiter-Glo solution was added to each well, shook and mixed evenly, and incubated in the dark for 10 minutes, and a BioTek Synergy H1 microplate reader was used for reading.
The luminescence signal value was used to calculate the inhibition rate. Graphpad Prism software was used to fit the concentration and inhibition rate to a nonlinear regression curve, so as to obtain the IC50 value, as shown in Tables 3 and 4 below for details.

Chain of EGFR L858R/T790M/C797S mutant kinase (P00533 25-1210 T790M/C797S/L858R): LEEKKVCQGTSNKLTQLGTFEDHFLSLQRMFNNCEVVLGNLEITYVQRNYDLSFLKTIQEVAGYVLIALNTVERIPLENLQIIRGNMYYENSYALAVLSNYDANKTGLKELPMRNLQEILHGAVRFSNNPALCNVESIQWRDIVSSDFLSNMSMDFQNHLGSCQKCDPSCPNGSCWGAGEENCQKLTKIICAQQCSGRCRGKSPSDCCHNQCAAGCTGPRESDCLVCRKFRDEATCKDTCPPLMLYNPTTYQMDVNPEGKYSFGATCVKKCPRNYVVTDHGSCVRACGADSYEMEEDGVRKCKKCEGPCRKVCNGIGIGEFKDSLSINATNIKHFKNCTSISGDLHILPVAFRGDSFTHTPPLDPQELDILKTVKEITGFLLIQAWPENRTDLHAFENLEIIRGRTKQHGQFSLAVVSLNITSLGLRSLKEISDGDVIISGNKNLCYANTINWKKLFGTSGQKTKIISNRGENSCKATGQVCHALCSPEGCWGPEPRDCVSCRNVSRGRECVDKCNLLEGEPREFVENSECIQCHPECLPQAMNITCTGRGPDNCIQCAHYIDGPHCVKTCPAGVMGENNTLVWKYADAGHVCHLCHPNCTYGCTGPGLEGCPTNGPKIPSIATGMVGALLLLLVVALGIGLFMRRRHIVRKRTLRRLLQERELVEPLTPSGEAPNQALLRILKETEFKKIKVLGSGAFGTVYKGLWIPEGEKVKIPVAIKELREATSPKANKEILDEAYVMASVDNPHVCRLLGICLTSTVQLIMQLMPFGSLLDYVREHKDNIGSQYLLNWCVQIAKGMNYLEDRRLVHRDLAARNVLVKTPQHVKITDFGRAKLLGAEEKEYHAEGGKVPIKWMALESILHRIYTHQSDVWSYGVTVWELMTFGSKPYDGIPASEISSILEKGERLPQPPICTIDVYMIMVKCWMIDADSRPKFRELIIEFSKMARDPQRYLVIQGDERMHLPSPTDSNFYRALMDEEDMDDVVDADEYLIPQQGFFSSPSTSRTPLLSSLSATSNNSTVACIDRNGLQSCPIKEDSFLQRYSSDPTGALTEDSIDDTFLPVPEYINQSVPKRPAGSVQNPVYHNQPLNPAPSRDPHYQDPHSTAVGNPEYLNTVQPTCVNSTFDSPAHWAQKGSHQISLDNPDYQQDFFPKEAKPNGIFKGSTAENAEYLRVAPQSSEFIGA

Row | SMILES | IC50 [1] [nM] | IC50 [2] [nM] | IC50 [3] [nM] | IC50 [4] [nM]
1 | CC(C)c1ccc(N2C[C@H](CS(C)(=O)=O)[C@H]2C)c2cnc(Nc3ccnc(-c4cnn(CC5CCO5)c4)n3)cc12 (stereo partly drawn) [Example 21, 5-isopropyl-8-((2R,3S)-2-methyl-3-((methanesulfonyl)methyl)azetidin-1-yl)-N-(2-(1-(oxetan-2-ylmethyl)-1H-pyrazol-4-yl)pyrimidin-4-yl)isoquinolin-3-amine] | 0.6 | 3.9 | 96 | 
2 | CC(C)c1ccc(N2C[C@H](CS(C)(=O)=O)[C@H]2C)c2cnc(Nc3ccnc(-c4cnn(CCF)c4)n3)cc12 [Example 27, N-(2-(1-(2-fluoroethyl)-1H-pyrazol-4-yl)pyrimidin-4-yl)-5-isopropyl-8-((2R,3S)-2-methyl-3-((methanesulfonyl)methyl)azetidin-1-yl)isoquinolin-3-amine] | 1.9 | 8.9 | 40 | 
3 | CC(C)c1ccc(N2C[C@H](CS(C)(=O)=O)[C@H]2C)c2cnc(Nc3ccnc(-c4cnn(CC5(C#N)CC5)c4)n3)cc12 [Example 19, 1-((4-(4-((5-isopropyl-8-((2R,3S)-2-methyl-3-((methanesulfonyl)methyl)azetidin-1-yl)isoquinolin-3-yl)amino)pyrimidin-2-yl)-1H-pyrazol-1-yl)methyl)cyclopropane-1-carbonitrile] | 1 | 2.5 |  | 
4 | CC(C)c1ccc(N2C[C@H](CS(C)(=O)=O)[C@H]2C)c2cnc(Nc3ccnc(-c4cnn(C5CCN(C)CC5)c4)n3)cc12 [Example 14, 5-isopropyl-8-((2R,3S)-2-methyl-3-((methanesulfonyl)methyl)azetidin-1-yl)-N-(2-(1-(1-methylpiperidin-4-yl)-1H-pyrazol-4-yl)pyrimidin-4-yl)isoquinolin-3-amine] | 0.73 | 3.6 | 54 | 

Next, values leading:

Row | IC50 [1] [nM] | IC50 [2] [nM] | IC50 [3] [nM] | IC50 [4] [nM] | SMILES
5 | 0.3 | 3.6 | 29 | 10 | CC(C)c1ccc(N2C[C@H](CS(C)(=O)=O)[C@H]2C)c2cnc(Nc3ccnc(-c4cnn(C)c4)n3)cc12 [Example 24, 5-isopropyl-N-(2-(1-methyl-1H-pyrazol-4-yl)pyrimidin-4-yl)-8-((2R,3S)-2-methyl-3-((methanesulfonyl)methyl)azetidin-1-yl)isoquinolin-3-amine]
6 | 1.9 | 2.5 | 41 |  | CC(C)c1ccc(N2C[C@H](CS(C)(=O)=O)[C@H]2C)c2cnc(Nc3ccnc(-c4cnn(C5CC5)c4)n3)cc12 [Example 15, N-(2-(1-cyclopropyl-1H-pyrazol-4-yl)pyrimidin-4-yl)-5-isopropyl-8-((2R,3S)-2-methyl-3-((methanesulfonyl)methyl)azetidin-1-yl)isoquinolin-3-amine]
7 | 0.51 | 0.58 | 14 | 10 | CC(C)c1ccc(N2CC(CS(C)(=O)=O)C2)c2cnc(Nc3ccnc(-c4cnn(S(=O)(=O)C5CC5)c4)n3)cc12 [Example 1, N-(2-(1-(cyclopropylsulfonyl)-1H-pyrazol-4-yl)pyrimidin-4-yl)-5-isopropyl-8-(3-((methanesulfonyl)methyl)azetidin-1-yl)isoquinolin-3-amine]
